Results reported in US8987213B2, “Peptides that selectively home to heart vasculature and related conjugates and methods” (Sanford-Burnham Medical Research Institute, priority 2004, dated 2015).
“Also recorded” adds a separate entry of the source. Where no end group is shown, it is not given here.

Tests used:
[1] = molecular target: T1, endothelin A-receptor (Homo sapiens, UniProt P25101); settings: cited from earlier work
T1 construct: host or cells: patients
T1 sequence (P25101 21-427): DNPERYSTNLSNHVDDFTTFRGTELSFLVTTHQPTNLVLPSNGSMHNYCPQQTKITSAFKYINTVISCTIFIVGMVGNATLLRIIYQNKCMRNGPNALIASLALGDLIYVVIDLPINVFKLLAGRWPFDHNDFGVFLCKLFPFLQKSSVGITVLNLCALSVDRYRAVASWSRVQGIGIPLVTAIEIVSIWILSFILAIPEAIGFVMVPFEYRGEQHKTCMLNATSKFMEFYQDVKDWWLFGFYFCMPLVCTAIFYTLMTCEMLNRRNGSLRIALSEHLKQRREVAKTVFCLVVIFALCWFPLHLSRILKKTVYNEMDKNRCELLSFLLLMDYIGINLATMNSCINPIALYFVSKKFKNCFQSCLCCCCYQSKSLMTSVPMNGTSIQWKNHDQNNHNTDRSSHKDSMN

[2] = test system: heart vasculature; experiment: In vivo heart homing of individual phage-displayed peptides after intravenous injection; set-up: species or system mouse; settings: for selective homing to the heart (in words): peptide displayed on T7 phage, intravenous injection into mice
Experimental: The indicated peptides identified from a combined screen for heart endothelial homing were reconstituted in T7 phage and individually administered by intravenous injection into mice. […] The highest specificity (over 300-fold) was recorded for the CRPPR (SEQ ID NO: 1)-displaying phage. (A) CRPPR (SEQ ID NO: 1) phage homing to heart, kidney, brain, muscle and lung. (B) CARPAR (SEQ ID NO: 5) phage homing to heart, kidney, brain, muscle and lung. (C) CKRAVR (SEQ ID NO: 7) phage homing to heart, kidney, brain, muscle and lung. (D) CLIDLHVMC (SEQ ID NO: 10) phage homing to heart, kidney, brain, muscle and lung. (E) CRSTRANPC (SEQ ID NO: 11) phage homing to heart, kidney, brain, muscle and lung. (F) CPKTRRVPC (SEQ ID NO: 12) phage homing to heart, kidney, brain, muscle and lung.
In vivo panning was performed as follows. The ex vivo-selected phage pool (5×10^9 p.f.u.) was intravenously injected into mice through the tail vein and allowed to circulate for ten minutes before mice were carefully perfused through the left ventricle with DMEM in order to remove unbound intravascular phage. The heart and control tissues (brain, kidney, skin and muscle) were excised, and phage recovered as described in Hoffman et al., supra, 2004. Phage recovered from the heart were reinjected into mice, and the cycle was repeated for a total of three rounds. Non-recombinant phage were injected into a separate mouse as a control in each experiment.
Individual phage clones were reconstructed as follows. Oligonucleotides that encoded peptides from selected bait plasmids were synthesized, phosphorylated with T4 polynucleotide kinase (PNK; NEB) at 37° C. for one hour, and annealed at a concentration of 0.08 pmol/μl. The annealed inserts were diluted to 0.04 pmol/μl and ligated into T7Select 415-1 arms (Novagen) with T4 ligase overnight at 16° C. The next day, intact recombinant phage were prepared by mixing the ligation reaction with packaging extracts as described by the manufacturer. Inserts were confirmed by sequencing, and individual clones were amplified for ex vivo and in vivo testing as described in Example I above.

[3] = test system: heart endothelia; experiment: Phage localization in tissues by anti-T7 immunostaining, co-injected with fluorescein-conjugated tomato lectin; type: in vivo, mouse; settings: peptide displayed on phage, injected intravenously with tomato lectin
Experimental: Further characterization was performed on the five most efficient homing peptides, as indicated by the fold-selectivity summarized in Table 1, and their putative receptors. These homing peptides were analyzed for the ability to selectively bind heart endothelia in vivo and for specific binding to their putative receptors, which also were analyzed for expression in heart endothelia. Each of the phage-displaying a particular homing peptide was individually injected intravenously into mice with fluorescein-conjugated tomato lectin, a blood vessel marker. […] None of the six phage were detected in tissues other than heart under the same conditions.
Immunohistochemistry was performed as follows. Rat monoclonal anti-mouse CD31 (1:100) was obtained from BD Pharmingen (San Jose, Calif.), and rabbit polyclonal anti-T7 phage (1:500), and chicken anti-mouse CRIP2 IgY (1:100) were obtained from GenWay (San Diego, Calif.). Secondary antibodies, AlexaFluor-488 goat anti-rat IgG (1:1000) and AlexaFluor-594 goat anti-rat or rabbit IgG (1:1000) were obtained from Molecular Probes (Eugene, Oreg.); the secondary antibody GAYFC-AlexaFluor 594 goat anti-IgY Fc (1:250) was obtained from GenWay. Frozen sections were preincubated with blocking buffer (5% normal goat serum and 0.5% BSA in 1×PBS) for one hour, washed three times with PBS, and incubated with the primary antibody of interest overnight at 4° C. After the overnight incubation, secondary antibodies were added and incubated for one hour at room temperature. Slides were washed three times with PBS and mounted in Vectashield Mounting Medium with DAPI (Vector Laboratories; Burlingame, Calif.). Blood vessels were additionally visualized by intravenous injection with Lycopersicon esculentum (tomato) lectin conjugated to fluorescein (100 μg in 200 μl of PBS) purchased from Vector Laboratories.

[4] = molecular target: T2, Sigirr/TIR8 (Mus musculus, UniProt Q9JLZ8); experiment: Phage binding to receptor-transfected 293T cells and peptide competition; set-up: species or system murine; settings: free synthetic peptide 100 μg/ml
T2 construct: Full-length cDNAs were constructed for four of the putative heart homing receptors; expressed in transfected cells; host or cells: 293T cells, pMH6-derived plasmid
T2 sequence (Q9JLZ8 1-409): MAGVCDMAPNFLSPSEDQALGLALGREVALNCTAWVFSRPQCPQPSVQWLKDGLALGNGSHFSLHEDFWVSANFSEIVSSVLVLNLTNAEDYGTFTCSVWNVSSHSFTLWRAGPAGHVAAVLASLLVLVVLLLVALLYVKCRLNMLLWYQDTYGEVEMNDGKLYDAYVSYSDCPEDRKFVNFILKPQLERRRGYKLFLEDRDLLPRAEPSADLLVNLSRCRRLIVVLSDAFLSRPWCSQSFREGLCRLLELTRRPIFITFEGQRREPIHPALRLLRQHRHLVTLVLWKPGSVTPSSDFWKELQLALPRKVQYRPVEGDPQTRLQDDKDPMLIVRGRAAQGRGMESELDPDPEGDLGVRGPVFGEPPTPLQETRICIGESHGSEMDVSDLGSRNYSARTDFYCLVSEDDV
Experimental: (§1) Receptor transfections and phage binding assays were performed as follows. 293T cells were transfected with pMH6-derived plasmids (Roche Diagnostics; Indianapolis, Ind.) encoding HLP/CRIP2, Sigirr/TIR8, MpcII-3-related protein and bc10 using the Fugene transfection reagent (Roche Diagnostics). Briefly, 10 μg of plasmid was mixed with 700 μl of serum-free DMEM and 30 μl of Fugene transfection reagent and incubated for 15 minutes at room temperature before the mixture was added to cells. After forty-eight hours, cells were detached from culture dishes using EDTA and washed once with PBS. Phage displaying CRPPR (SEQ ID NO: 1), CKRAVR (SEQ ID NO: 7), CRSTRANPC (SEQ ID NO: 11) or CPKTRRVPC (SEQ ID NO: 12) and nonrecombinant control phage (1×10^9 p.f.u) were incubated with transfected cells for two hours at 4° C. Unbound phage were removed by five washes with 1% BSA in PBS. Bound phage were rescued by addition of bacteria; binding efficiencies were determined by plaque assay as described above.
(§2) Peptides for competition assays were synthesized at The Burnham Institute peptide facility using Fmoc chemistry in a solid-phase synthesizer prior to purification by HPLC and confirmation of their identity by mass spectrometry. Fluorescein-conjugated peptides were synthesized as described in Wender et al., Proc. Natl. Acad. Sci. USA 97:13003-13008 (2000). Competition assays were performed by addition of 100 μg peptide to the cells and phage, followed by incubation at 4° C. for two hours. After five washes with […], bound phage were rescued and quantitated by plaque assay.

[5] = molecular target: T3, bc10 (Mus musculus, UniProt P62951); experiment: as above; set-up: species or system murine; settings: free synthetic peptide 100 μg/ml
T3 construct: Full-length cDNAs were constructed for four of the putative heart homing receptors; expressed in transfected cells; host or cells: 293T cells, pMH6-derived plasmid
T3 sequence (P62951 1-87): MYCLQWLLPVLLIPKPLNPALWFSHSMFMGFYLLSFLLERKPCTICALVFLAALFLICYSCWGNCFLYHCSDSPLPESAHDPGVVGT
Experimental: as §1, §2

[6] = molecular target: T4, HLP/CRIP2 (Mus musculus, UniProt Q9DCT8); experiment: as above; set-up: species or system murine; settings: free synthetic peptide 100 μg/ml
T4 construct: Full-length cDNAs were constructed for four of the putative heart homing receptors; expressed in transfected cells; host or cells: 293T cells, pMH6-derived plasmid
T4 sequence (Q9DCT8 1-208): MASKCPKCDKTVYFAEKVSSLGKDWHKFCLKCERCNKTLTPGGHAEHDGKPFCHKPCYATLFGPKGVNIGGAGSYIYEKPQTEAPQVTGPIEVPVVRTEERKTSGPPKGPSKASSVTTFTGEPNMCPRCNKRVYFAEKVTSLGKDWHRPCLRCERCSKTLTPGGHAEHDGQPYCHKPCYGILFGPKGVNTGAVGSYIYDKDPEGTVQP
Experimental: as §1, §2

[7] = test system: heart-derived cell suspensions; experiment: Competition of CRPPR-displaying phage binding to heart-derived cell suspensions; type: cell-based, murine; settings: various concentrations of antibody or free peptide
Experimental: CRPPR (SEQ ID NO: 1)-displaying phage were incubated with cell suspensions prepared from the heart; phage binding was measured in the presence and absence of various concentrations of the indicated antibodies or peptides. (A) A chicken anti-CRIP2 antibody blocked SEQ ID NO: 1-displaying phage binding to heart cells; normal IgY was used as the negative control. […] (C) In vivo homing of the CRPPR (SEQ ID NO: 1)-displaying phage to the heart was inhibited by co-injected anti-CRIP2 antibody. Shown are the mean and standard deviation from three separate experiments.
The specificity of CRPPR (SEQ ID NO: 1)-phage binding to heart vasculature was assayed using competition assays. […] As negative controls, two other heart-homing peptides had no effect on the CRPPR (SEQ ID NO: 1)-phage binding. Furthermore, co-injected anti-HLP/CRIP2 antibody inhibited in vivo homing of CRPPR (SEQ ID NO: 1)-phage (FIG. 7C).

[8] = molecular target: T5, MpcII-3-related protein (Mus musculus, UniProt Q9CZB0); experiment: Phage binding to receptor-transfected 293T cells and peptide competition; set-up: species or system murine; settings: free synthetic peptide 100 μg/ml
T5 construct: Full-length cDNAs were constructed for four of the putative heart homing receptors; expressed in transfected cells; host or cells: 293T cells, pMH6-derived plasmid
T5 sequence (Q9CZB0 30-169): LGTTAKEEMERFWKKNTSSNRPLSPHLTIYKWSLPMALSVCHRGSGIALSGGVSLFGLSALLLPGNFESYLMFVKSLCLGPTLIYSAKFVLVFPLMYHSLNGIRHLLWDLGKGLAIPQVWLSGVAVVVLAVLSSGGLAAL
Experimental: as §1, §2

Cc1cc2c(cc1CC(=O)c1sccc1S(=O)(=O)Nc1onc(C)c1Cl)OCO2 [TBC 11251]
clinical effect in patients with moderate to severe congestive heart failure [1]: significant improvement

CARPAR (displayed on phage)
selective homing to the heart (in words) [2]: exhibited selective homing to the heart
phage detection in tissues other than heart (anti-T7 antibody) [3]: absent from other tissues
phage localization in heart endothelia (anti-T7 antibody) [3]: present in heart endothelia

CGNQVDSRC (displayed on T7 phage)
selective homing to the heart (in words) [2]: no significant selective homing

CKRAVR [on phage and as free peptide]
phage detection in tissues other than heart (anti-T7 antibody) [3]: absent from other tissues
phage localization in heart endothelia (anti-T7 antibody) [3]: present in heart endothelia
inhibition of CKRAVR-phage binding to Sigirr/TIR8-transfected cells by free peptide [4]: inhibited

CLIDLHVMC (displayed on phage) [peptide identified with receptor clone 27; negative control phage]
selective homing to the heart (in words) [2]: no specific homing to the heart
phage localization in heart endothelia (anti-T7 antibody) [3]: absent from the heart
phage localization in heart endothelia (anti-T7 antibody) ([3]; listed as SEQ ID NO: 10): absent from the heart and other tissues

CPKRPR (displayed on phage)
selective homing to the heart (in words) [2]: exhibited selective homing to the heart

CPKTRRVPC [on phage and as free peptide]
phage detection in tissues other than heart (anti-T7 antibody) [3]: absent from other tissues
phage localization in heart endothelia (anti-T7 antibody) [3]: present in heart endothelia
inhibition of CPKTRRVPC-phage binding to bc10-transfected cells by free peptide [5]: inhibited

CPSELLLP (displayed on phage)
selective homing to the heart (in words) [2]: did not

CRPPR (not fully specified) [tested on T7 phage, as free peptide and fluorescein-conjugated]
phage homing to the lungs ([2]; peptide displayed on phage, lung tissue): little
phage detection in tissues other than heart (anti-T7 antibody) [3]: absent from other tissues
phage localization in heart endothelia (anti-T7 antibody) [3]: present in heart endothelia
inhibition of CRPPR-phage binding to HLP/CRIP2-transfected cells by free peptide [6]: inhibited
inhibition of CRPPR-displaying phage binding to heart-derived cell suspensions [7]: blocked; also recorded: Dose dependent inhibition

CRSTRANPC [on phage and as free peptide]
phage detection in tissues other than heart (anti-T7 antibody) [3]: absent from other tissues
phage localization in heart endothelia (anti-T7 antibody) [3]: present in heart endothelia
inhibition of CRSTRANPC-phage binding to MpcII-3-related protein-transfected cells by free peptide [8]: inhibited
